How the values were obtained:
[1] = system: immortalized human microvascular endothelial HMEC-1 cells; test: Cytotoxicity assay (cell proliferation); assay type: cell-based; conditions: 10^−6 M (+VEGF 10 ng/mL), 72 hours
Procedure: The immortalized human microvascular endothelial cell line HMEC-1, characterized by Ades, et al., (Journal of Investigative Dermatology 1992, 99: 683–690), was maintained in Medium 199, supplemented with 10% heat-inactivated fetal bovine serum (FBS), penicillin (50 IU/mL) and hydrocortisone (100 μg/mL). Cells were routinely grown in 75 cm2 gelatin-coated tissue culture flasks and kept in a humidified atmosphere of 5% CO2 at 37° C. Cells were harvested with a solution of 0.25% trypsin-0.03% EDTA when they were in long phase of growth and maintained at the above-described culture conditions for all experiments.
In vitro chemosensitivity testing was performed on single-cell suspensions of HEMC-1 cells (5×10^3 cells/well) plated in 96-well gelatin-coated sterile plastic plates and allowed to attach overnight. […] The treatments were scheduled so that each peptide was represented by at least nine wells. At the end of the experiment, cells were rinsed with phosphate buffered saline (PBS), harvested with trypsin/EDTA, and counted with an hemocytometer. Results are expressed as the percentage of cell proliferation versus controls and are the mean of three separate experiments±S.E repeated thrice.

[2] = system: human placental vessel explants (capillaries sprouts); test: In vitro cultures of human placental vessels, sprouting index by image analysis; assay type: cell-based; conditions: 10^−6 M, treated every two days for 28 days
Procedure: The experimental procedure described by Brown et al., (Laboratory Investigation 1996, 75: 539–555) was followed and modified in the present study. Immediately after the spontaneous delivery, the placenta was collected in sterile conditions and superficial blood vessels, approximately […] in diameter and from 1 to 5 cm in length, were excised. Vessel explants were placed in phosphate buffered saline (PBS) solution containing […] of amphotericin B and 50 μg/mL of gentamycin and were cut into approximately 1-mm fragments. […]
The image analysis procedures described by Bocci et al., (Cancer Chemotherapy Pharmacology 1999, 43: 205–212), were adopted for the present study. […] The true color image analysis software package KS 300 v.1.2 (Kontron Elektronik GmbH, Eching, Germany) was run for interactive manipulation, quantification of the images and data collection. […] In the fibrin culture of placental vessel explants the mean gray level of the sprouting area was measured and the sprouting index (SI) was defined as: Sprouting index=((sprouting area/mean gray level of sprouting area)/perimeter of explant)×100. Results are expressed as the percentage of sprouting index+/−S.E. versus controls.

Cc1cc(C)c(/C=C2\C(=O)Nc3ccccc32)[nH]1 [SU5416, 3-((2,4-dimethylpyrrol-5-yl)methylidenyl)-2-indolinone]
cell growth block [1]: 56.2%
sprouting index (SI) as compared to untreated controls [2]: 32.92±9.7%
